Measurements reported in patent US20080113962A1, “Condensed Tricyclic Benzimidazoles For the Treatment of Gastrointestinal Disorders” (Aitana Pharma AG, priority 2004, published 2008).

Assays:
[1] = system: pentagastrin-stimulated acid secretion of the perfused rat stomach; experiment: Secretion-inhibiting action on the perfused rat stomach (pentagastrin-stimulated acid secretion); assay type: in vivo; conditions: anesthetized CD rat, dose 3.0 μmol/kg i.d. (intraduodenal)
From the text: Testing of the Secretion-Inhibiting Action on the Perfused Rat Stomach
In Table A which follows, the influence of the compounds of the formula 1 according to the invention on the pentagastrin-stimulated acid secretion of the perfused rat stomach after intraduodenal administration in vivo is shown.
The abdomen of anesthetized rats (CD rat, female, 200-250 g; 1.5 g/kg i.m. urethane) was opened after tracheotomy by a median upper abdominal incision and a PVC catheter was fixed transorally in the esophagus and another via the pylorus such that the ends of the tubes just projected into the gastric lumen. The catheter leading from the pylorus led outward into the right abdominal wall through a side opening.
After thorough rinsing (about 50-100 ml), warm (37° C.) physiological NaCl solution was continuously passed through the stomach (0.5 ml/min, pH 6.8-6.9; Braun-Unita I). The pH (pH meter 632, glass electrode EA 147; φ=5 mm, Metrohm) and, by titration with a freshly prepared 0.01N NaOH solution to pH 7 (Dosimat 665 Metrohm), the secreted HCl were determined in the effluent in each case collected at an interval of 15 minutes.
The gastric secretion was stimulated by continuous infusion of […] (=1.65 ml/h) of i.v. pentagastrin (left femoral vein) about 30 min after the end of the operation (i.e. after determination of 2 preliminary fractions). […]

| SMILES | melting point | Inhibition of acid secretion [1] |
| --- | --- | --- |
| Cc1nc2c3c(ccc2n1C)[C@H](O)C[C@H](c1ccccc1)O3 (relative stereo) [Example 1, cis-2,3-Dimethyl-8-phenyl-3,6,7,8-tetrahydro-chromeno[7,8-d]imidazol-6-ol] | 228 to 229 °C | – |
| CCOC1CC(c2ccccc2)Oc2c1ccc1c2nc(C)n1C (stereo not shown) [Example 3, 6-(2-Ethoxy)-2,3-dimethyl-8-phenyl-3,6,7,8-tetrahydro-chromeno[7,8-d]imidazole] | 177 to 178 °C | – |
| COCCOC1CC(c2ccccc2)Oc2c1ccc1c2nc(C)n1C (stereo not shown) [Example 2, 6-(2-Methoxy-ethoxy)-2,3-dimethyl-8-phenyl-3,6,7,8-tetrahydro-chromeno[7,8-d]imidazole] | 148 to 149 °C | >50% |
